Legend:
[1] = Plasma L-carnitine concentration by LC-MS; assay type: in vivo, mouse; settings: oral gavage once daily, ApoE KO/AAV-CETP mice (FIG. 3)
Description: (§1) ApoE KO mice, male and 6 to 7 weeks of age, were transfected in vivo with AAV-CETP. Two weeks after infection, CETP expression in plasma was verified using a commercially available ELISA kit, and the mice were placed on a Western (high-fat) diet.
(§2) The mice were sorted into several groups based on matching initial total cholesterol and verified CETP expression: 1 control group receiving a dose of dH2O. 2—a group receiving a high dose of L-carnitine (35.2 mg/mL dH2O). 3—a group receiving a low dose of L-carnitine (8.7mg/mL dH2O). 4—a group receiving a high dose of L-carnitine (35.2 mg/mL dH2O) and a dose of methimazaole (1.5 mg/mL dH2O). 5—a group receiving a dose of methimazaole (1.5 mg/mL dH2O).
(§3) Dosing began when the mice reached 10 weeks of age and continued for 12 weeks. Drugs were administered once daily by oral gavage. The animals' body weights were measured weekly.
The concentrations of L-carnitine and TMAO in the plasma were measured using a liquid chromatography mass spectrometry method. A deuterium labeled L-carnitine stock standard was prepared using the weigh by difference technique. About 5 mg of d9-L-carnitine from Cambridge Isotope Laboratories were added to a 10 mL volumetric flask via a weighing funnel or weighing paper, and water:methanol=1:1 was used to dissolve the sample. A deuterium labeled TMAO stock standard was prepared by accurately weighing 25±2 mg of d9-trimethylamine N-oxide reference standard, transferring the sample into a 25 mL volumetric flask, adding about 15 mL of water:methanol=1:1, and vortexing until dissolved. The flask was then filled to volume with water:methanol=1:1
Stock standards of deuterium labeled L-carnitine and deuterium labeled TMAO were prepared using 5 mg/10 mL water/methanol of d9-L-carnitine and 25 mg/25 mL water/methanol of d9-TMAO. These stock standards were used to prepare an internal standard by adding 200 μL of d9-L-carnitine stock standard and 10 μL of d9-TMAO into a 50 mL volumetric flask, adding acetonitrile to volume, and mixing well.
Calibration standards were then prepared. […]

[2] = Plasma TMAO concentration by LC-MS; assay type: in vivo, mouse; settings: high dose of L-carnitine (352 mg/kg), oral gavage once daily, ApoE KO/AAV-CETP mice (FIG. 4)
Description: as §1, §2, §3
The concentrations of L-carnitine and TMAO in the plasma were measured using a liquid chromatography mass spectrometry method. A deuterium labeled L-carnitine stock standard was prepared using the weigh by difference technique. About 5 mg of d9-L-carnitine from Cambridge Isotope Laboratories were added to a 10 mL volumetric flask via a weighing funnel or weighing paper, and water:methanol=1:1 was used to dissolve the sample. […]

[3] = tested on: mouse model of atherosclerosis; assay: En face analysis of thoracic aorta lesions (Sudan IV staining); assay type: in vivo; settings: for amount of plaque present in the thoracic aorta (en face analysis): after 12 weeks of treatment, ApoE KO/AAV-CETP mice on Western diet (FIG. 5)
Description: as §1, §2, §3
The effect of treatment with L-carnitine and/or methimazole on atherosclerosis progression was determined by measuring the amount of lesions present in the thoracic aorta and the sinotubular junction of the aortic root. After 12 weeks of treatment, the mice were sacrificed, and their tissues were removed for analysis. The En-face thoracic aortas were isolated and prepared for analysis by trimming present fat and fixing the aortas in formalin for 48-72 hours. For morphometric en face analysis, the aortas were laid out, pinned on black matrix, and stained with the lipid binding dye Sudan IV to determine the percentage of the thoracic aorta with lesion present. A Nikon computerized image analysis system was used to image the vessels for surface involvement.

[4] = tested on: mouse model of atherosclerosis; assay: Plaque in the aortic root (aortic sinus sections, hematoxylin and eosin); assay type: in vivo; settings: after 12 weeks of treatment, ApoE KO/AAV-CETP mice on Western diet (FIG. 7)
Description: as §1, §2, §3

Row | concentration of L-carnitine in the plasma compared to the control vehicle ([1]; high dose of L-carnitine (352 mg/kg)) | concentration of L-carnitine in the plasma compared to the control vehicle ([1]; low dose of L-carnitine (87 mg/kg)) | Structure (SMILES) | concentration of TMAO compared to the vehicle control [2] | amount of plaque present in the thoracic aorta (en face analysis) [3] | amount of plaque in the aortic root [4] | percent lesion area of the thoracic aorta ([3]; TMAO levels higher than 0.1 ppm versus TMAO levels lower than 0.1 ppm (FIG. 6)) | concentration of L-carnitine in comparison to the control vehicle ([1]; methimazole (15 mg/kg))
1 | significant increase | significant increase | C[N+](C)(C)C[C@H](O)CC(=O)[O-] [L-carnitine] | statistically significant increase | no significant changes | small but significant reductions | – | –
2 | – | – | C[N+](C)(C)[O-] [TMAO, trimethylamine N-oxide] | – | – | – | significant decrease | –
3 | – | – | Cn1cc[nH]c1=S [methimazole] | – | no significant changes | small but significant reductions | – | significant decrease
